From patent US20110190272A1, “CHEMICAL COMPOUNDS” (ASTRAZENECA AB, priority 2008, published 2011)

Key:
CSF-1R [1] = molecular target: T1, CSF-1R (Homo sapiens, UniProt P07333); experiment: Assay 2: CSF1R In-Vitro AlphaScreen Assay; format: biochemical; conditions: purified His-tagged kinase domain of CSF-1R, 12 mM ATP in mix
T1 construct: The His-tagged kinase domain of CSF-1R (i.e., amino acids 568-912, GeneBank ID NM_005211); His; made in house; host or cells: baculovirus infected SF+Express insect cells
T1 sequence (P07333 568-912): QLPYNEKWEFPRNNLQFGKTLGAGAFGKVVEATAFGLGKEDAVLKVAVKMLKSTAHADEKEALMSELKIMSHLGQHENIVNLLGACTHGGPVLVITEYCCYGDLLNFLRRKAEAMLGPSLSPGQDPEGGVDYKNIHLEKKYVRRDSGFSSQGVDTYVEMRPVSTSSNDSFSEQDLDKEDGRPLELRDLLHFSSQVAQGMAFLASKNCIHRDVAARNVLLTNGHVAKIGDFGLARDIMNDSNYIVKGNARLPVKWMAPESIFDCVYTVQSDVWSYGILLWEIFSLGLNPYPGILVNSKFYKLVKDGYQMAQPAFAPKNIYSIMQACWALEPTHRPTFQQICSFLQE
Protocol: Assay 2: CSF1R In-Vitro AlphaScreen Assay
Activity of purified CSF-1R was determined in-vitro using an Amplified Luminescent Proximity Homogeneous Assay (ALPHA) (Perkin Elmer, Mass.), which measures phosphorylation of CSF-1R substrate, biotinylated […] peptide (pEY-HTRF CisBio 61GT0BLD), as described below. The His-tagged kinase domain of CSF-1R (i.e., amino acids 568-912, GeneBank ID NM_005211) was purified from baculovirus infected SF+Express insect cells (1.4×10^6 cells/ml), French pressed and chromatographed through subsequent QIAgen Ni-NTA, Superflow Mono Q HR 10/10, and Superdex 200 SEC columns.
The phosphorylation of the CSF-1R substrate in the presence and absence of the compound of interest was determined. Briefly, 5 ul of Enzyme/Substrate/adenosine triphosphate (ATP) mix consisting of 0.46 nM of purified CSF-1R, 12 nM pEY substrate, and 12 mM ATP in 1.2× buffer was preincubated with 2 ul of compound for 20 minutes at 25° C. Reactions were initiated with 5 ul of Metal mix consisting of 24 mM MgCl2 in 1.2× buffer and incubated at 25° C. for 90 minutes and reactions were stopped by addition of 5 ul of Detection mix consisting of 20 mM HEPES, 102 mM ethylenediamine tetraacetic acid, 1.65 mg/ml BSA, 136 mM NaCl, 40 ug/ml Streptavidin donor beads (Perkin Elmer, Mass., Catalog #6760002), and 40 ug/ml phosphotyrosine-specific antibody coated acceptor beads (Perkin Elmer, Mass., Catalog #6760620). Plates were incubated at 25° C. for 18 hours in the dark. Phosphorylated substrate was detected by an EnVision plate reader (Perkin Elmer) 680 nm excitation, 520-620 nm emission. Data was graphed and IC50s calculated using Excel Fit (Microsoft).

CSF-1R [2] = molecular target: T1, CSF-1R; experiment: Assay 1: CSF-1R In Vitro AlphaScreen Assay; format: biochemical; conditions: purified His-tagged kinase domain of CSF-1R, 90 μM ATP
Protocol: The phosphorylation of the CSF-1R substrate in the presence and absence of the compound of interest was determined. […] Plates were incubated at 25° C. for 18 hours in the dark. Phosphorylated substrate was detected by an EnVision plate reader (Perkin Elmer) 680 nm excitation, 520-620 nm emission. Data was graphed and IC50s calculated using Excel Fit (Microsoft).

## COc1cc2nnc(C(N)=O)c(Nc3ccc(C)cc3F)c2cc1N1CCN(C(=O)C(C)(C)O)CC1 [Example 69, 4-[(2-Fluoro-4-methylphenyl)amino]-6-[4-(2-hydroxy-2-methylpropanoyl)piperazin-1-yl]-7-methoxycinnoline-3-carboxamide]
CSF-1R [1]
  IC50: 0.023 µM

## COc1cc2nnc(C(N)=O)c(Nc3ccc(C)cc3F)c2cc1N1CCN(C[C@@H](O)CO)CC1 [Example 68, 6-{4-[(2R)-2,3-Dihydroxypropyl]piperazin-1-yl}-4-[(2-fluoro-4-methylphenyl)amino]-7-methoxycinnoline-3-carboxamide]
CSF-1R [1]
  IC50: 0.006 µM

## COc1cc2nnc(C(N)=O)c(Nc3ccc(C)cc3F)c2cc1C1CCN(CC(F)F)CC1 [Example 71, 6-[1-(2,2-Difluoroethyl)piperidin-4-yl]-4-[(2-fluoro-4-methylphenyl)amino]-7-methoxycinnoline-3-carboxamide]
CSF-1R [1]
  IC50: 0.039 µM

## COc1cc2nnc(C(N)=O)c(Nc3cccc(Cl)c3F)c2cc1OC [Example 3, 4-[(3-Chloro-2-fluorophenyl)amino]-6,7-dimethoxycinnoline-3-carboxamide]
CSF-1R [2]
  IC50: < 0.003 µM

## COc1cc2nnc(C(N)=O)c(Nc3ccc(C)cc3F)c2cc1N1CCN(C(CO)CO)CC1 [Example 66, 4-[(2-Fluoro-4-methylphenyl)amino]-6-{4-[2-hydroxy-1-(hydroxymethyl)ethyl]piperazin-1-yl}-7-methoxycinnoline-3-carboxamide]
CSF-1R [1]
  IC50: 0.004 µM

## COc1cc2nnc(C(N)=O)c(Nc3ccc(C)cc3F)c2cc1CN1CCOCC1 [Example 73, 4-[(2-Fluoro-4-methylphenyl)amino]-7-methoxy-6-(morpholin-4-ylmethyl)cinnoline-3-carboxamide]
CSF-1R [1]
  IC50: 0.052 µM

## COc1cc2nnc(C(N)=O)c(Nc3ccc(C)cc3F)c2cc1N1C[C@@H](C)N(CCO)[C@@H](C)C1 [Example 63, 4-[(2-Fluoro-4-methylphenyl)amino]-6-[(3R,5S)-4-(2-hydroxyethyl)-3,5-dimethylpiperazin-1-yl]-7-methoxycinnoline-3-carboxamide]
CSF-1R [1]
  IC50: 0.012 µM

## COc1cc2nnc(C(N)=O)c(Nc3ccc(C)cc3F)c2cc1N1C[C@@H](C)N(C(C)=O)[C@@H](C)C1 [Example 72, 6-[(3R,55)-4-Acetyl-3,5-dimethylpiperazin-1-yl]-4-[(2-fluoro-4-methylphenyl)amino]-7-methoxycinnoline-3-carboxamide]
CSF-1R [1]
  IC50: 0.052 µM

## Cc1ccc(Nc2c(C(N)=O)nnc3cc(N4CCN(CCO)CC4)ccc23)c(F)c1 [Example 57, 4-[(2-Fluoro-4-methylphenyl)amino]-7-[4-(2-hydroxyethyl)piperazin-1-yl]cinnoline-3-carboxamide]
CSF-1R [1]
  IC50: 0.008 µM

## Cc1ccc(Nc2c(C(N)=O)nnc3cc(N4CCN(S(C)(=O)=O)CC4)ccc23)c(F)c1 [Example 56, 4-[(2-Fluoro-4-methylphenyl)amino]-7-[4-(methylsulfonyl)piperazin-1-yl]cinnoline-3-carboxamide]
CSF-1R [1]
  IC50: 0.011 µM

## COc1cc2nnc(C(N)=O)c(Nc3ccc(C)cc3F)c2cc1N1CC[C@H](N(C)C)C1 [Example 41, 6-[(3S)-3-(Dimethylamino)pyrrolidin-1-yl]-4-[(2-fluoro-4-methylphenyl)amino]-7-methoxycinnoline-3-carboxamide]
CSF-1R [1]
  IC50: < 0.003 µM

## Cc1ccc(Nc2c(C(N)=O)nnc3cc(N4CCN(C)CC4)ccc23)c(F)c1 [Example 55, 4-[(2-Fluoro-4-methylphenyl)amino]-7-(4-methylpiperazin-1-yl)cinnoline-3-carboxamide]
CSF-1R [1]
  IC50: 0.003 µM

## COc1cc2nnc(C(N)=O)c(Nc3ccc(C)cc3F)c2cc1N1CCN(C[C@H](O)CO)CC1 [Example 67, 6-{4-[(25)-2,3-Dihydroxypropyl]piperazin-1-yl}-4-[(2-fluoro-4-methylphenyl)amino]-7-methoxycinnoline-3-carboxamide]
CSF-1R [1]
  IC50: 0.005 µM

## COc1cc2nnc(C(N)=O)c(Nc3ccc(C)cc3F)c2cc1N1CCN(CCS(C)(=O)=O)CC1 [Example 65, 4-[(2-Fluoro-4-methylphenyl)amino]-7-methoxy-6-{4-[2-(methylsulfonyl)ethyl]piperazin-1-yl}cinnoline-3-carboxamide]
CSF-1R [1]
  IC50: 0.006 µM

## COc1cc2nnc(C(N)=O)c(Nc3ccc(C)cc3F)c2cc1C1CCN(C(=O)[C@H](C)O)CC1 [Example 70, 4-[(2-Fluoro-4-methylphenyl)amino]-6-{1-[(2S)-2-hydroxypropanoyl]piperidin-4-yl}-7-methoxycinnoline-3-carboxamide]
CSF-1R [1]
  IC50: 0.024 µM

## COCCOC1CCN(c2cc3c(Nc4ccc(C)cc4F)c(C(N)=O)nnc3cc2OC)CC1 [Example 60, 4-[(2-Fluoro-4-methylphenyl)amino]-7-methoxy-6-[4-(2-methoxyethoxy)piperidin-1-yl]cinnoline-3-carboxamide]
CSF-1R [1]
  IC50: 0.039 µM
